The values that follow come from patent EP0181129B1, “N6-substituted deoxyribose analogs of adenosines” (WARNER-LAMBERT COMPANY, priority 1984, dated 1986).

Molecules are shown by their SMILES.

The test system of test [1] is Long-Evans rats or squirrel-monkeys. In words: Conditioned avoidance of electric footshock by lever pushing (SIDR). It is filed as in vivo. On the procedure: A representative compound of the invention (identified in the Example 5) was also tested for antipsychotic activity according to the following protocol (SIDR). The noted compound has the indicated EDso values (mg/kg) and is considered active as an antipsychotic agent in the test procedure.
Mature male Long-Evans rats or squirrel-monkeys are conditioned to push a lever in order to avoid a painful electric footshock. If the animal fails to push the lever, he receives a shock every ten seconds until the lever is pushed. Shocks can be terminated by pushing the lever. Thereafter, as long as the lever is pushed at least once every 20 seconds, there will be no shock.
Each animal acts as its own control; one weekly session is used to establish baseline behavior and another session later in the week is used as a drug session. Once patterns of avoidance are established, the effects of standard and unknown compounds are studied.

For the next test, the system named is male Swiss-Webster mice. Briefly: Antiwrithing (AW) test, acetic acid induced writhing. The format is in vivo. The conditions noted are these: Mus musculus, ip; administered intraperitoneally to mice; read-out: ED50 (dose necessary to suppress writhing by 50% relative to vehicle controls).
A further test concerns the target T1, adenosine A1 receptor (Rattus norvegicus, UniProt P25099).
T1 construct: brain minus cerebellum and brainstem from male Long Evans rats (150-200 g) was homogenized; from tissue; host or cells: rat whole brain minus cerebellum and brainstem, membrane homogenate
T1 sequence (P25099 1-326): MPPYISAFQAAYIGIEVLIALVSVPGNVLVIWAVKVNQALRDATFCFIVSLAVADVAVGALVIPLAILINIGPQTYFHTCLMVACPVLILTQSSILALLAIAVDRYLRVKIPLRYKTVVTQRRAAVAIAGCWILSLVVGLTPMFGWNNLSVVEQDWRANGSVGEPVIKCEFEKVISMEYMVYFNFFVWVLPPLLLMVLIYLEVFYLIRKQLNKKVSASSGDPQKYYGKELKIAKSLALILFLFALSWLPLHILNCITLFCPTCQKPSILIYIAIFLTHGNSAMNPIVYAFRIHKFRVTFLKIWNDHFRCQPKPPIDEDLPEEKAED
Briefly: Adenosine Receptor Binding - A1 Receptor Affinity (RBA1), [3H]-CHA displacement. The conditions noted are these: 1.0 nM [3H]-CHA, rat whole brain membranes, one hour at 25°C; read-out: Receptor Binding RBA—1. The procedure:
While brain minus cerebellum and brainstem from male Long Evans rats (150-200 g) was homogenized in 30 volumes of ice-cold 0.05 M Tris-CHI buffer pH 7.7 using a Brinkman Polytron PT-10, (setting number 6 for 20 seconds) and centrifuged for ten minutes at 20,000 x g (Sorvall RC-2), 4°C. The supernatant was discarded, and the pellet was resuspended and centrifuged as before. The pellet was resuspended in 20 ml Tris-HCI buffer containing two International Units/ml of adenosine deaminase (Sigma type III from calf intestinal mucosa), incubated at 37°C for 30 minutes, then subsequently at 0°C for ten minutes. The homogenate was again centrifuged, and the final pellet was resuspended in ice-cold 0.05 M Tris-HCI buffer pH 7.7 to a concentration of 20 mg/ml original wet tissue weight and used immediately.
Tissue homogenate (10 mg/ml) was incubated in 0.05 M Tris-HCI buffer pH 7.7 containing 1.0 nM (^3H]-N^e-cyclohexyladenosine ([^3H]-CHA) with or without tests agents in triplicate for one hour at 25°C. Incubation volume was 2 ml. Unbound [^3H]-CHA was separated by rapid filtration under reduced pressure through Whatman glass fiber (GF/B) filters. The filters were rinsed three times with 5 ml of ice cold 0.05 M Tris-HCI buffer pH 7.7. The radio-labeled ligand retained on the filter was measured by liquid scintillation spectrophotometry after shaking the filters for one hour or longer on a mechanical shaker in 10 ml of Beckman Ready-Solv HP scintillation cocktail.
Nonspecific binding was defined as the binding which occurred in the presence of 1 mM theophylline. […] The Scatchard plot was calculated by linear regression of the line obtained by plotting the amount of radioligand bound (pmoles/gram of tissue) [formula] Since the amount of radioligand bound was a small fraction of the total amount added, free radioligand was defined as the concentration (nM) of radioligand added to the incubation mixture. The Hill coefficient was calculated by linear regression of the line obtained by plotting the log of the bound radioligand vs the log of the [formula] The maximal number of binding sites (Bmax) was calculated from the Scatchard plot.

Another test addresses T2, adenosine A2 receptor (Rattus norvegicus, UniProt P30543).
T2 construct: Brains were thawed and then kept on ice while the striata were dissected out; tissue Pel-Freez (Rogers, Arkansas); host or cells: rat striatum, membranes
Briefly: Adenosine Receptor Binding - A2 Receptor Affinity (RBA2), [3H]NECA displacement. The note with it: 4 nM [3H]NECA with 50 nM N6-cyclopentyladenosine, rat striatal membranes, 60 minutes at 25°C; read-out: Receptor Binding RBA—2. On the procedure:
Brains from 200-500 g mixed sex Sprague-Dawley rats were purchased from Pel-Freez (Rogers, Arkansas). Fresh brains from male Long-Evans hooded rats (Blue Spruce Farms, Altamont, NY) gave essentially indentical results. Brains were thawed and then kept on ice while the striata were dissected out. Striata were disrupted in 10 vol of ice-cold 50 mM Tris.HCI (pH 7.7 at 25°C, pH 8.26 at 5°C) (Tris) for 30 seconds in a Polytron PT―10 (Brinkmann) at setting 5. The suspension was centrifuged at 50,000 xg for ten minutes, the supernatant discarded, the pellet resuspended in 10 vol ice-cold Tris as above, recentrifuged, resuspended at 1 g/5 ml, and stored in plastic vials at -70°C (stable for at least six months). When needed, tissue was thawed at room temperature, disrupted in a Polytron, and kept on ice until used.
All incubations were for 60 minutes at 25°C in 12x75 mm glass tubes containing 1 ml Tris with 5 mg original tissue weight of rat weight of rat striatal membranes, 4 nM [^3H]-N-ethyl adenosine-5'-carboxamide ([^3H]NECA), 50 nM N^6-cyclopentyladenosine (to eliminate A1 receptor binding), 10 mM MgCl2, 0.1 units/ml, of adenosine deaminase and 1% dimethylsulfoxide. N^6-Cyclopentyladenosine was dissolved at 10 mM in 0.02 N HCI and diluted in Tris. Stock solutions and dilutions of N^6-cyclopentyladenosine could be stored at -20°C for several months. Test compounds were dissolved at 10 mM in dimethylsulfoxide or the same day as the experiment, and diluted in dimethylsulfoxide to 100x the final incubation concentration. Control incubations received an equal volume (10 µl) of dimethylsulfoxide; the resulting concentration of dimethylsulfoxide had no effect on binding. [^3H]NECA was diluted to 40 nM in Tris. The membrane suspension (5 mg/0.79 ml) contained sufficient MgCl2 and adenosine deaminase to give 10 mM and 0.1 units/ml, respectively, final concentration in the incubation. […] After all additions, the rack of tubes was vortexed, and the tubes were then incubated for 60 min at 25°C in a shaking water bath. The rack of tubes was vortexed an additonal time halfway through the incubation.
Incubations were terminated by filtration through 2.4 cm GF/B filters under reduced pressure. Each tube was filtered as follows: the contents of the tube were poured onto the filter, 4 ml of ice-cold Tris were added to the tube and the contents poured onto the filter, and the filter was washed twice with 4 ml of ice-cold Tris. The filtration was complete in about twelve seconds. Filters were put in scintillation vials, 8 ml of Formula 947 scintillation fluid added, and the vials left overnight, shaken, and counted in a liquid scintillation counter at 40% efficiency.
Nonspecific binding was defined as binding in the presence of […] N^6-cyclopentyladenosine, and specific binding was defined as total binding minus nonspecific binding. The IC50 was calculated by weighted nonlinear least squares curve-fitting to the mass-action equation. [formula] • where Y is cpm bound T is cpm total binding without drug S is cpm specific binding without drug D is the concentration of drug • and K is the IC50 of the drug Weighting factors were calculated under the assumption that the standard deviation was proportional to the predicted value of Y. Nonspecific binding was treated as a very large (infinite) concentration of drug in the computer analysis.

T2 sequence (P30543 whole entry): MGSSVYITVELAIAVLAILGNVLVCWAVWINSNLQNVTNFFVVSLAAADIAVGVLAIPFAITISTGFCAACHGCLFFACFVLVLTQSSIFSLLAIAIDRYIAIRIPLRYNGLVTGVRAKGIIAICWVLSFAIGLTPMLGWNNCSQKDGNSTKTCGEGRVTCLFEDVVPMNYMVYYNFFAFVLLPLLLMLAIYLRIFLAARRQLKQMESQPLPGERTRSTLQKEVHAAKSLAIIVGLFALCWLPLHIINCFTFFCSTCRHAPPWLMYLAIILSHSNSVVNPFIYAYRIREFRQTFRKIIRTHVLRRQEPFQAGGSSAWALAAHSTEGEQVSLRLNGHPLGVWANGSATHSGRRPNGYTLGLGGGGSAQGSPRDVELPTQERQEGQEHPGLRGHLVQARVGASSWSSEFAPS

In the case of `C[C@H]1O[C@@H](n2cnc3c(NC4CCCC4)ncnc32)[C@H](O)[C@@H]1O` [Example 5, N^6-[Cyclopentyl]-5'-deoxyadenosine], the ED50 in test [1] (Rattus norvegicus, species of the result not stated (rats or squirrel-monkeys), read-out: ED50 for blockade of avoidance) is 2.8 mg/kg; with male Swiss-Webster mice, 0.9 mg/kg. Also, the “response for blockade of escape” value in test [1] (at 4 mg/kg) is reported as 10%. Besides, the IC50 is 0.016 µM on adenosine A1 receptor and 17.2 µM on adenosine A2 receptor.

For orientation: ED50 means the dose that gives a 50% effect, or the effect in half of the subjects.
